pIC50: −log10 of the molar value.
target: Human recombinant DHX9 protein (Homo sapiens (Human), UniProt Q08211); experiment: DHX9 ATPase assay (ADP-Glo); type: biochemical; conditions: not given
Sequence (Q08211 whole entry): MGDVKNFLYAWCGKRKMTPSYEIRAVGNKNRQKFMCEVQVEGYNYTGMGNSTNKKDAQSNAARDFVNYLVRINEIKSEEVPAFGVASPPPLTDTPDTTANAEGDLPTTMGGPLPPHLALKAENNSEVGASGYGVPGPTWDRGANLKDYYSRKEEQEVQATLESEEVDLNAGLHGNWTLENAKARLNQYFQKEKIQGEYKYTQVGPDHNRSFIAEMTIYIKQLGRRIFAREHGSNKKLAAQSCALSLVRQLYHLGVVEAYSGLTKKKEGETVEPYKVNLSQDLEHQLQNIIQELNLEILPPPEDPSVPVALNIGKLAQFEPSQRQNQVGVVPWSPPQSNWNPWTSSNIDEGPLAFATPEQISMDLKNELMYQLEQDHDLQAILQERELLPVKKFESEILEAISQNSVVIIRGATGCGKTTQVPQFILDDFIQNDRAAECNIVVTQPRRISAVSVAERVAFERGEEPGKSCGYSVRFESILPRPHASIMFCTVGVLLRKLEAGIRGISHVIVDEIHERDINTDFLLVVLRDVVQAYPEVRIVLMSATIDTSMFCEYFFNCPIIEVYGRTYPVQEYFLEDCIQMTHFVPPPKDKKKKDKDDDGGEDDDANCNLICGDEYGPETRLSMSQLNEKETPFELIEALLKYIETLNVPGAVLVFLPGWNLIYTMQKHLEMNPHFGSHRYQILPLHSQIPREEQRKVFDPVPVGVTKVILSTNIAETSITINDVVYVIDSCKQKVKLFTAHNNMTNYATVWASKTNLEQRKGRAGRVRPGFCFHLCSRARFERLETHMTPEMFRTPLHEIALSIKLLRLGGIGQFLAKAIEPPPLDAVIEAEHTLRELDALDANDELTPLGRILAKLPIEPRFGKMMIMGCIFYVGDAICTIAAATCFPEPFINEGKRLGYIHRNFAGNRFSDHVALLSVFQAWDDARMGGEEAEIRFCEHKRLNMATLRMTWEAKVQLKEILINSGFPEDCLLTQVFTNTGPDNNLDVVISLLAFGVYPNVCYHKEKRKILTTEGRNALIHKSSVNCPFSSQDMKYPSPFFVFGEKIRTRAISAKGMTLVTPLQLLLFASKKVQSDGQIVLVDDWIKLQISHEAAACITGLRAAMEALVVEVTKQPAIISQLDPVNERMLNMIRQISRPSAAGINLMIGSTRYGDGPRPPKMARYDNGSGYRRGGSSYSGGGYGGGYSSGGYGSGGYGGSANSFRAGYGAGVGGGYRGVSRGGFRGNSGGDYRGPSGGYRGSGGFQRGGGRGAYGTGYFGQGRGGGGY

SMILES | DHX9 Biochemical Max Inhibition
Cc1cc(C(=O)Nc2cc(Cl)cc(NS(C)(=O)=O)c2)cn1-c1ncc(N2CC(F)(F)C2)cc1OC1CCC1 [Example 673] | 70.2
CS(=O)(=O)Nc1cc(Cl)cc(NC(=O)c2cnn(-c3ncccc3Oc3cccnc3)c2)c1 [Example 676] | 68.4
Cc1sc(C(=O)Nc2cc(Cl)cc(NS(C)(=O)=O)c2)cc1-c1ncc(OC(C)CO)cn1 (stereo not drawn) [Example 677] | 75.1
Cc1sc(C(=O)Nc2cc(Cl)cc(NS(C)(=O)=O)c2)cc1-c1ncc(OC(C)(C)CO)cn1 [Example 678] | 71.3
CN1CC(Oc2cnc(-c3cc(C(=O)Nc4cc(Cl)cc(NS(C)(=O)=O)c4)cn3CC(F)F)nc2)C1 [Example 679] | 70.2
Cc1sc(C(=O)Nc2cc(Cl)cc(NS(C)(=O)=O)c2)cc1-c1ncc(C2(F)COC2)cn1 [Example 680] | 95
Cc1sc(C(=O)Nc2cc(Cl)cc(NS(C)(=O)=O)c2)cc1-c1ncc(C2(O)CN(C)C2)cc1F [Example 681] | 77.5
COCc1cc(C(=O)Nc2cc(Cl)cc(NS(C)(=O)=O)c2)cn1-c1ncccc1F [Example 682] | 85.4
Cc1sc(C(=O)Nc2cc(Cl)cc(NS(C)(=O)=O)c2)c(F)c1-c1ncc(OC(C)C)cn1 [Example 683] | 62.5
Cc1cccnc1-c1csc(C(=O)Nc2cc(Cl)cc(NS(C)(=O)=O)c2)c1C [Example 684] | 50.6
Cc1sc(C(=O)Nc2cc(Cl)cc(NS(C)(=O)=O)c2)cc1N1C(=O)N(c2ccccn2)C(C)(C)C1=O [Example 685] | 64.3
CC(C)(C)Oc1cnc(-c2cc(C(=O)Nc3cc(Cl)cc(NS(C)(=O)=O)c3)sc2CO)nc1 [Example 686] | 66.6
CS(=O)(=O)Nc1cc(Cl)cc(NC(=O)c2cc3c(s2)CCC3Oc2cccnc2)c1 (stereo not drawn) [Example 687] | 68.1
Cn1cc(C(=O)Nc2cc(Cl)cc(NS(C)(=O)=O)c2)cc1-c1ccc(N2CC(C)(F)C2)cn1 [Example 688] | 67.9
CS(=O)(=O)Nc1cc(Cl)cc(NC(=O)c2cc(-c3ccc(F)cn3)n(CCO)c2)c1 [Example 689] | 85
COCc1cnc(-c2cc(C(=O)Nc3cc(Cl)cc(NS(C)(=O)=O)c3)cn2C)nc1 [Example 690] | 75.8
CS(=O)(=O)Nc1cc(Cl)cc(NC(=O)c2cnn(-c3ncc(N4CC5(COC5)C4)cc3O)c2)c1 [Example 691] | 68.5
Cc1sc(C(=O)Nc2cc(Cl)cc(NS(C)(=O)=O)c2)cc1-c1cn(C2CCOCC2)nn1 [Example 692] | 81.5

SMILES | DHX9 Biochemical Max Inhibition
CCOc1cnc(-n2cc(C(=O)Nc3cc(Cl)cc(NS(C)(=O)=O)c3)cc2C(F)(F)F)nc1 [Example 693] | 64.9
Cc1cc(C(=O)Nc2cc(Cl)cc(NS(C)(=O)=O)c2)cn1-c1ncc(N2CC(C(F)(F)F)C2)cn1 [Example 694] | 73
Cn1cc(C(=O)Nc2cc(Cl)cc(NS(C)(=O)=O)c2)cc1-c1ccc(N2CC(CS(C)(=O)=O)C2)cn1 [Example 695] | 69.7
Cc1sc(C(=O)Nc2cc(Cl)cc(NS(C)(=O)=O)c2)cc1-c1ncc(F)cc1C#CC(C)(C)O [Example 696] | 75.4
Cn1cc(C(=O)Nc2cc(Cl)cc(NS(C)(=O)=O)c2)cc1-c1ncc(OC2CN(C(=O)C3CC3)C2)cc1F [Example 697] | 59.5
Cc1sc(C(=O)Nc2cc(Cl)cc(NS(C)(=O)=O)c2)cc1-c1nccn1CCc1ccccc1 [Example 698] | 75.4
CC(=O)N1CCC(c2cnc(-c3cc(C(=O)Nc4cc(Cl)cc(NS(C)(=O)=O)c4)sc3C)nc2)CC1 [Example 699] | 93.6
CCS(=O)(=O)Nc1cc(Cl)cc(NC(=O)c2cc(-c3ncc(C(F)(F)F)cc3C)c(C)s2)c1 [Example 700] | 85.6
CS(=O)(=O)Nc1cc(Cl)cc(NC(=O)c2cc(-c3ccc(F)cn3)n(S(C)(=O)=O)c2)c1 [Example 701] | 66.9
Cn1cc(C(=O)Nc2cc(Cl)cc(NS(C)(=O)=O)c2)cc1-c1ncc(N2CC3(C2)CC(F)(F)C3)cc1F [Example 702] | 70.8
COc1ccc(F)c(-c2cc(C(=O)Nc3cc(Cl)cc(NS(C)(=O)=O)c3)cn2C)n1 [Example 703] | 53.6
Cn1cc(C(=O)Nc2cc(Cl)cc(NS(C)(=O)=O)c2)cc1-c1ccc(C2CCOCC2)cn1 [Example 704] | 78.1
Cc1sc(C(=O)Nc2cc(Cl)cc(NS(C)(=O)=O)c2)cc1-c1ncc(F)cc1-c1cnco1 [Example 705] | 55.6
Cc1sc(C(=O)Nc2cc(Cl)cc(NS(C)(=O)=O)c2)cc1-c1ncc(OCC(F)(F)F)cn1 [Example 706] | 96.1
Cc1sc(C(=O)Nc2cc(Cl)cc(NS(C)(=O)=O)c2)cc1-c1ncc(N2CC(F)(F)C2)cc1OCC(F)(F)F [Example 707] | 67.1
Cc1cc(C(=O)Nc2cc(Cl)cc(NS(C)(=O)=O)c2)cn1-c1ncc(N2CC(F)(F)C2)cc1OCC(F)(F)F [Example 708] | 73
CS(=O)(=O)Nc1cc(Cl)cc(NC(=O)c2cc(Cl)n(-c3ncc(F)cn3)c2)c1 [Example 709] | 60.9
Cc1sc(C(=O)Nc2cc(Cl)cc(NS(C)(=O)=O)c2)cc1-c1ccc(C2CN(CC(F)(F)F)C2)cn1 [Example 710] | 69

same assay, conditions: read-out: DHX9 Biochemical Inflection Point

SMILES | pIC50
Cc1cc(C(=O)Nc2cc(Cl)cc(NS(C)(=O)=O)c2)cn1-c1ncc(N2CC(F)(F)C2)cc1OC1CCC1 [Example 673] | 6.98
CS(=O)(=O)Nc1cc(Cl)cc(NC(=O)c2cnn(-c3ncccc3Oc3cccnc3)c2)c1 [Example 676] | 7.15
Cc1sc(C(=O)Nc2cc(Cl)cc(NS(C)(=O)=O)c2)cc1-c1ncc(OC(C)CO)cn1 (stereo not drawn) [Example 677] | 8.17
Cc1sc(C(=O)Nc2cc(Cl)cc(NS(C)(=O)=O)c2)cc1-c1ncc(OC(C)(C)CO)cn1 [Example 678] | 8.24
CN1CC(Oc2cnc(-c3cc(C(=O)Nc4cc(Cl)cc(NS(C)(=O)=O)c4)cn3CC(F)F)nc2)C1 [Example 679] | 7.90
Cc1sc(C(=O)Nc2cc(Cl)cc(NS(C)(=O)=O)c2)cc1-c1ncc(C2(F)COC2)cn1 [Example 680] | 8.52
Cc1sc(C(=O)Nc2cc(Cl)cc(NS(C)(=O)=O)c2)cc1-c1ncc(C2(O)CN(C)C2)cc1F [Example 681] | 8.62
COCc1cc(C(=O)Nc2cc(Cl)cc(NS(C)(=O)=O)c2)cn1-c1ncccc1F [Example 682] | 7.08
Cc1sc(C(=O)Nc2cc(Cl)cc(NS(C)(=O)=O)c2)c(F)c1-c1ncc(OC(C)C)cn1 [Example 683] | 5.77
Cc1cccnc1-c1csc(C(=O)Nc2cc(Cl)cc(NS(C)(=O)=O)c2)c1C [Example 684] | 5.08
Cc1sc(C(=O)Nc2cc(Cl)cc(NS(C)(=O)=O)c2)cc1N1C(=O)N(c2ccccn2)C(C)(C)C1=O [Example 685] | 6.93
CC(C)(C)Oc1cnc(-c2cc(C(=O)Nc3cc(Cl)cc(NS(C)(=O)=O)c3)sc2CO)nc1 [Example 686] | 7.74
CS(=O)(=O)Nc1cc(Cl)cc(NC(=O)c2cc3c(s2)CCC3Oc2cccnc2)c1 (stereo not drawn) [Example 687] | 6.92
Cn1cc(C(=O)Nc2cc(Cl)cc(NS(C)(=O)=O)c2)cc1-c1ccc(N2CC(C)(F)C2)cn1 [Example 688] | 7.79
CS(=O)(=O)Nc1cc(Cl)cc(NC(=O)c2cc(-c3ccc(F)cn3)n(CCO)c2)c1 [Example 689] | 8.44
COCc1cnc(-c2cc(C(=O)Nc3cc(Cl)cc(NS(C)(=O)=O)c3)cn2C)nc1 [Example 690] | 8.14
CS(=O)(=O)Nc1cc(Cl)cc(NC(=O)c2cnn(-c3ncc(N4CC5(COC5)C4)cc3O)c2)c1 [Example 691] | 7.44
Cc1sc(C(=O)Nc2cc(Cl)cc(NS(C)(=O)=O)c2)cc1-c1cn(C2CCOCC2)nn1 [Example 692] | 8.57

SMILES | pIC50
CCOc1cnc(-n2cc(C(=O)Nc3cc(Cl)cc(NS(C)(=O)=O)c3)cc2C(F)(F)F)nc1 [Example 693] | 6.39
Cc1cc(C(=O)Nc2cc(Cl)cc(NS(C)(=O)=O)c2)cn1-c1ncc(N2CC(C(F)(F)F)C2)cn1 [Example 694] | 7.53
Cn1cc(C(=O)Nc2cc(Cl)cc(NS(C)(=O)=O)c2)cc1-c1ccc(N2CC(CS(C)(=O)=O)C2)cn1 [Example 695] | 8.07
Cc1sc(C(=O)Nc2cc(Cl)cc(NS(C)(=O)=O)c2)cc1-c1ncc(F)cc1C#CC(C)(C)O [Example 696] | 7.94
Cn1cc(C(=O)Nc2cc(Cl)cc(NS(C)(=O)=O)c2)cc1-c1ncc(OC2CN(C(=O)C3CC3)C2)cc1F [Example 697] | 7.39
Cc1sc(C(=O)Nc2cc(Cl)cc(NS(C)(=O)=O)c2)cc1-c1nccn1CCc1ccccc1 [Example 698] | 5.98
CC(=O)N1CCC(c2cnc(-c3cc(C(=O)Nc4cc(Cl)cc(NS(C)(=O)=O)c4)sc3C)nc2)CC1 [Example 699] | 8.66
CCS(=O)(=O)Nc1cc(Cl)cc(NC(=O)c2cc(-c3ncc(C(F)(F)F)cc3C)c(C)s2)c1 [Example 700] | 6.82
CS(=O)(=O)Nc1cc(Cl)cc(NC(=O)c2cc(-c3ccc(F)cn3)n(S(C)(=O)=O)c2)c1 [Example 701] | 6.94
Cn1cc(C(=O)Nc2cc(Cl)cc(NS(C)(=O)=O)c2)cc1-c1ncc(N2CC3(C2)CC(F)(F)C3)cc1F [Example 702] | 7.02
COc1ccc(F)c(-c2cc(C(=O)Nc3cc(Cl)cc(NS(C)(=O)=O)c3)cn2C)n1 [Example 703] | 7.35
Cn1cc(C(=O)Nc2cc(Cl)cc(NS(C)(=O)=O)c2)cc1-c1ccc(C2CCOCC2)cn1 [Example 704] | 7.90
Cc1sc(C(=O)Nc2cc(Cl)cc(NS(C)(=O)=O)c2)cc1-c1ncc(F)cc1-c1cnco1 [Example 705] | 7.72
Cc1sc(C(=O)Nc2cc(Cl)cc(NS(C)(=O)=O)c2)cc1-c1ncc(OCC(F)(F)F)cn1 [Example 706] | 7.71
Cc1sc(C(=O)Nc2cc(Cl)cc(NS(C)(=O)=O)c2)cc1-c1ncc(N2CC(F)(F)C2)cc1OCC(F)(F)F [Example 707] | 7.55
Cc1cc(C(=O)Nc2cc(Cl)cc(NS(C)(=O)=O)c2)cn1-c1ncc(N2CC(F)(F)C2)cc1OCC(F)(F)F [Example 708] | 7.16
CS(=O)(=O)Nc1cc(Cl)cc(NC(=O)c2cc(Cl)n(-c3ncc(F)cn3)c2)c1 [Example 709] | 7.00
Cc1sc(C(=O)Nc2cc(Cl)cc(NS(C)(=O)=O)c2)cc1-c1ccc(C2CN(CC(F)(F)F)C2)cn1 [Example 710] | 7.84

Source: patent US20240316047A1, “INHIBITORS OF RNA HELICASE DHX9 AND USES THEREOF” (ACCENT THERAPEUTICS, INC., priority 2022, published 2024)
